Source: ChEMBL document CHEMBL1131120, “The frontier orbital phase angles: novel QSAR descriptors for benzene derivatives, applied to phenylalkylamine hallucinogens” (1998)

Species: Homo sapiens
Experiment: Compound tested for hallucinogenic activity in humans was reported; Value reported in (A)= Mescaline units
Format: functional

Row | Structure (SMILES) | Activity
1 | COc1cc(CC(C)N)c(OC)c2c1OCO2 (stereo not given) | 6
2 | COc1cc(CCN)cc(OC)c1OCC1CC1 | 4
3 | COc1cc(OC)c(CC(C)N)cc1Br (stereo not given) | 4
4 | CCOc1cc(CCN)cc(OC)c1SCC | 4
5 | COc1cc(CCN)cc(OC)c1C | 4
6 | CCCc1cc(OC)c(CCN)cc1OC | 37
7 | CCCc1cc(OC)c(CC(C)N)cc1OC (stereo not given) | 80
8 | COc1cc(CCN)c(OC)cc1Br | 16
9 | CCCSc1cc(OC)c(CCN)cc1OC | 15
10 | COc1cc(SC(C)C)c(OC)cc1CCN | 21
11 | CCSc1cc(CCN)cc(OC)c1OC | 4
12 | C=C(C)COc1c(OC)cc(CCN)cc1OC | 6
13 | COc1cc(OC)c(CC(C)N)c(OC)c1 (stereo not given) | 10
14 | COc1cc(SC)c(OC)cc1CCN | 4
15 | COc1cc(CC(C)N)c(OC)cc1I (stereo not given) | 133
16 | CC(N)Cc1ccc2c(c1)OCO2 (stereo not given) [TENAMFETAMINE] | 3
17 | CCCSc1cc(OC)c(CC(C)N)cc1OC (stereo not given) | 55
18 | CCOc1cc(OC)c(CC(C)N)cc1OC (stereo not given) | 9
19 | COc1cc(CC(C)N)c(OC)cc1C (stereo not given) [DOM] | 50
20 | COc1cc(CCN)cc(OC)c1OC(C)C | 5
21 | CCOc1cc(CCN)cc(OC)c1OCC | 1.3
22 | CCc1cc(OC)c(CCN)cc1OC | 18

Row | Structure (SMILES) | Activity
23 | CCOc1cc(CCN)cc(OC)c1SC | 4
24 | COc1cc(OC)c(OC)cc1CC(C)N (stereo not given) | 10
25 | CCSc1cc(OC)c(CCN)cc1OC | 16
26 | COc1cc([N+](=O)[O-])c(OC)cc1CC(C)N (stereo not given) | 80
27 | COc1cc(CCN)c(OC)c2c1C1CCC2C1 (stereo not given) | 22
28 | CCc1cc(OC)c(CC(C)N)cc1OC (stereo not given) | 75
29 | COc1cc(CCN)c(OC)c(C)c1C | 11
30 | COc1cc(CC(C)N)c(OC)cc1Cl (stereo not given) | 133
31 | COc1c(CC(C)N)ccc2c1OCO2 (stereo not given) | 6
32 | COc1cc(CCN)c(OC)cc1Cl | 10
33 | COc1cc(CCN)cc(OC)c1OC [MESCALINE] | 1
34 | COc1ccc(OC)c(CC(C)N)c1 (stereo not given) | 2.5
35 | COc1cc(CC(C)N)cc(OC)c1Br (stereo not given) | 43
36 | COc1cc(CCN)c(OC)c2ccccc12 | 10
37 | COc1cc(CC(C)N)c(OC)c(C)c1C (stereo not given) | 12
38 | COc1cc(SC)c(OC)cc1CC(C)N (stereo not given) | 40
39 | CCCSc1cc(OC)c(CCNO)cc1OC | 15
40 | COc1cc(CC(C)N)c(OC)c2c1CCC2 (stereo not given) | 20
41 | CCC(C)Sc1cc(OC)c(CCN)cc1OC (stereo not given) | 4
42 | COc1cc(SC(C)(C)C)c(OC)cc1CCN | 4
43 | COCCSc1cc(OC)c(CCN)cc1OC | 9
44 | CCNC(C)Cc1ccc2c(c1)OCO2 (stereo not given) | 2

Row | Structure (SMILES) | Activity
45 | COc1cc(CCN)c(OC)cc1I | 17
46 | CCOc1cc(CCN)cc(OC)c1OC | 1
47 | COc1cc(SCC2CC2)c(OC)cc1CCN | 7
48 | COc1cc(CC(C)N)cc(OC)c1OC (stereo not given) | 2
49 | COc1cc(CCN)cc(SC)c1OC | 4
50 | COc1cc(CCN)c(OC)c2c1CCC2 | 14
51 | COc1cc(C)c(SC)cc1CC(C)N (stereo not given) | 7
52 | CCSc1cc(OC)c(CC(C)N)cc1OC (stereo not given) | 50
53 | COc1cc(C)cc(OC)c1CC(C)N (stereo not given) | 15
54 | CCOc1c(OC)cc(CCN)cc1SC | 4
55 | COc1cc(CC(C)N)c(SC)cc1C (stereo not given) | 4
56 | CCC(C)Sc1cc(OC)c(CCNO)cc1OC (stereo not given) | 3
57 | COc1cc2c(cc1CC(C)N)OCO2 (stereo not given) | 8
58 | COc1ccc(OC)c(OC)c1CC(C)N (stereo not given) | 10
59 | CCOc1c(OC)cc(CCN)cc1SCC | 2
60 | CC(Cc1ccc2c(c1)OCO2)NO (stereo not given) | 2.3
61 | COc1cc(SC(C)C)c(OC)cc1CC(C)N (stereo not given) | 32
62 | CCCCSc1c(OC)cc(CCN)cc1OC | 3
63 | CCOc1cc(CCN)cc(SC)c1OCC | 2
64 | CCSc1cc(OC)c(CCNO)cc1OC | 22
65 | CC(C)(N)Cc1ccc2c(c1)OCO2 | 1.5
66 | COc1cc(CC(C)N)c(OC)cc1CCF (stereo not given) | 110

Row | Structure (SMILES) | Activity
67 | COc1cc(CC(C)N)c(OC)cc1Br (stereo not given) [BROLAMFETAMINE] | 150
68 | COc1cc(CC(C)N)c(OC)c(OC)c1OC (stereo not given) | 6
69 | COc1cc(CC(C)N)cc2c1OCO2 (stereo not given) | 2
70 | C=CCOc1c(OC)cc(CC(C)N)cc1OC (stereo not given) | 11
71 | COc1cc(CCN)c(OC)cc1C | 8
72 | COc1cc(CCN)cc(OC)c1SC | 10
73 | CCC(N)Cc1ccc2c(c1)OCO2 (stereo not given) | 1.5
74 | CCCSc1c(OC)cc(CCN)cc1OC | 16
75 | COc1cc(CC(C)N)c(OC)c(OC)c1 (stereo not given) | 4
76 | CCC(Cc1ccc2c(c1)OCO2)NC (stereo not given) | 1.5
77 | COc1ccc(CC(C)N)cc1 (stereo not given) [PARA-METHOXYAMPHETAMINE] | 5
78 | COc1cc(SCCF)c(OC)cc1CCN | 29
79 | CCOc1c(OC)cc(CCN)cc1OC | 6
80 | CCc1cc(OC)c(CC(C)N)cc1SC (stereo not given) | 15
81 | CCOc1c(OC)cc(CC(C)N)cc1OC (stereo not given) | 7
82 | COc1cc(CC(C)N)cc(OC)c1OCc1ccccc1 (stereo not given) | 3
83 | COc1cc(C2CC2N)c(OC)cc1C (stereo not given) | 17
84 | CCSc1c(OC)cc(CCN)cc1OC | 12
85 | CCCOc1c(OC)cc(CCN)cc1OC | 7
